Each structure is given as a SMILES string.

A short description of data set [1]: Parallel artificial membrane permeability assay (PAMPA), porcine polar brain lipid extract. Type of data set: in vitro ADME. To be noted: 200 μM, pH 7.4, 4 hours. The procedure: Parallel artificial membrane permeability assay (PAMPA) described in Kansy M et al., J. Med. Chem. 1998; […]:1007-10 was used to determine the capacity of compounds to cross the Blood-Brain Barrier (BBB) by passive diffusion (Di L et al., Eur. J. Med. Chem. 2003; 38(3):223-32). The effective permeability (Pe) of the compounds was measured at an initial concentration of 200 μM. The buffer solution was prepared from a commercial concentrated one following the manufacturer's instructions. pH was adjusted to 7.4 using a 0.5 M NaOH solution. A stock solution of new compound was prepared in DMSO and diluted with buffer solution to a final 200 μM concentration (0.5% DMSO content). The PAMPA sandwich was separated and each donor well was filled with 200 μL of the compound solution. […] After 4 hours, the contents of the acceptor and donor compartments were analyzed by HPLC: 150 μL of each well from the donor plate and 150 μL of each well from the acceptor plate were transferred to HPLC vials, injecting each sample into a reverse-phase C18 column (150 mm×4.6 mm×5 μm, 100 Å) (100 μL/injection from the acceptor wells, 10 μL/injection from the donor wells and for t0 references). […]
The effective permeability (Pe) after 4 hours was calculated using equation 2 and the percentage of transport was calculated using equation 3: […]

Data set [2] deals with MK-801-induced memory impairment. Kind of data set: Passive avoidance task, MK-801 cognition impairment model. The settings on record: s.c. 35 min before shock session; MK-801 i.p. 15 min later; FIG. 2. Type of data set: in vivo, rodents (mice or rats). The procedure: The new compounds were evaluated for their efficacy as cognition enhancers in a pharmacological model for cognitive impairment. The effects of the new compounds were evaluated in untreated and MK-801-treated rodents (mice or rats). MK-801 is a non-competitive antagonist of the N-Methyl-D-aspartate (NMDA) receptor which impairs animal performance in various learning and memory paradigms (Castellano C et al., Curr. Drug Targets 2001; 2:273-83; Riedel G et al., Behav. Brain Res. 2003; 140:1-47). MK-801 also produces various effects on rodent behavior, including deficits in sensory processing, hypermotility, stereotypy and ataxia. […]
For the evaluation of the passive avoidance task, a two-compartment box with a light compartment and a dark compartment of the same dimensions was used. […] In the evaluation session, the time which the animal takes to enter the dark compartment (in seconds) was measured, as a sign of memory retention of the shock received in the dark compartment during the previous session. […] The corresponding evaluated compound was injected s.c. 35 min before the shock session, followed 15 minutes later by i.p. injection of MK-801, or PBS in the case of the control, in the same doses and volume as described for the object recognition test.

Data set [3] deals with human prolyl oligopeptidase (Homo sapiens (Human), UniProt P48147). The data set is described as follows: POP inhibition assay (Z-G-P-AMC substrate, fluorimetric). The data set is classed as biochemical. To be noted: 100 mM Na/K phosphate buffer pH 8.0, hPOP 20 to 60 nM. Here is the method: hPOP expression: E. coli BL21 competent cells were transformed with pETM10 hPOP. To induce expression, a pre-culture of LB medium (50 mL) containing kanamycin (50 μg/mL) was inoculated with one colony and was grown overnight at 37° C., Next day, two cultures of LB medium (500 ml) were inoculated with the overnight culture (10 mL). The inoculated cultures were grown at 37° C. and 220 rpm until the OD595 was 1.2 (2.5-3 hours). […] The column was washed with suspension buffer until the absorbance at 280 nm returned to basal level. […] POP activity was checked in all fractions and positive ones were analyzed by SDS-PAGE and stained with Biosafe Comassie Stain G-250. […] Recombinant hPOP was quantified with the Bio-Rad Protein Assay with BSA as standard, Aliquots of the recombinant enzyme were prepared and immediately frozen with liquid nitrogen and stored at −80° C.
Sequence of human prolyl oligopeptidase (P48147 whole entry): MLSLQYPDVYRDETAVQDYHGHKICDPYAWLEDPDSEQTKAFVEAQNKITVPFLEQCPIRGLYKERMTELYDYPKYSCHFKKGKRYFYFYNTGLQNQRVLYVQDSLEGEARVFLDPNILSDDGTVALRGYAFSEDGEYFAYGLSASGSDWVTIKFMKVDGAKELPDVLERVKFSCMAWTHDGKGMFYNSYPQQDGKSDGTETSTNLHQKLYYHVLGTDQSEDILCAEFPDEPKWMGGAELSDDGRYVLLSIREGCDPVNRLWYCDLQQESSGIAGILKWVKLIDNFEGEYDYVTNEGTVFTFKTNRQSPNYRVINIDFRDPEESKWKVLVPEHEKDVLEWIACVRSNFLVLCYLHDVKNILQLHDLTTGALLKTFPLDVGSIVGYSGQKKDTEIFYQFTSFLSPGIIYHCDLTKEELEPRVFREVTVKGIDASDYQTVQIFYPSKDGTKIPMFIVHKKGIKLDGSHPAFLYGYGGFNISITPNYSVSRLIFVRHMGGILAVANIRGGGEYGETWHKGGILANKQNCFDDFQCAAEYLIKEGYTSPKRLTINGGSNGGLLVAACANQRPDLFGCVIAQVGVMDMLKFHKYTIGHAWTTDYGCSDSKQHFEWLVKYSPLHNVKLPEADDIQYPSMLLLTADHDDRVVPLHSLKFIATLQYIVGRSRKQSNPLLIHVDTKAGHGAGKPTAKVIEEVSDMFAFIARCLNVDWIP
POP activity was determined following the method described by Toide et al (Toide K et al., J. Pharmacol. Exp. Ther. 1995; 274:1370-8), using Z-G-P-AMC (N-benzyloxycarbonyl-Gly-Pro-methylcoumarinyl-7-amide) as POP substrate. […]
After preincubation, Z-G-P-AMC (10 μl, 3 mM in 40% 1,4-dioxane) was added (3 μL 1.5 mM in 40% of 1,4-dioxane, in Conditions B), and the reaction was incubated for 1 hour at 37° C. The reaction was stopped by adding sodium acetate (150 μl, 1 M, pH 4) and the formation of AMC was measured fluorimetrically. […]

On to `COc1cc(C(=O)N2C[C@H](OC)C[C@H]2C(=O)N2CCC[C@H]2C#N)cc(OC)c1OCc1ccccc1` [Example 1, (S)-1-((2S,4R)-1-(4-(benzyloxy)-3,5-dimethoxybenzoyl)-4-methoxypyrrolidine-2-carbonyl)pyrrolidine-2-carbonitrile], for which the “% T (percentage of transport)” value in data set [1] was found to be 4.3%.

As to `COc1cc(C(=O)N2CC(F)(F)C[C@H]2C(=O)N2CCC[C@H]2C#N)cc(OC)c1OCc1ccccc1` [Example 4, (S)-1-((2S)-1-(4-(benzyloxy)-3,5-dimethoxybenzoyl)-4,4-difluoropyrrolidine-2-carbonyl)pyrrolidine-2-carbonitrile], the “Reversal of MK-801-induced memory impairment in the passive avoidance test” value in data set [2] is “able to reverse MK-801-induced memory Impairment”.

For `COc1cc(C(=O)N2CC(F)(F)C[C@H]2C(=O)N2CCC[C@H]2C#N)cc(OCc2ccccc2)c1OCc1ccccc1` [Example 13, (S)-1-((2S)-1-(3,4-dibenzyloxy-5-methoxybenzoyl)-4,4-difluoropyrrolidine-2-carbonyl)pyrrolidine-2-carbonitrile], in data set [3], the concentration for half-maximal inhibition (IC50) – broadly, the concentration at which inhibition is half-maximal – came to 336 nM.
